In PMC5442318, “Hundreds of dual-stage antimalarial molecules discovered by a functional gametocyte screen” (Nature Communications, 2017):

Experiments:
[1] = test system: P. falciparum asexual blood stages; conditions: TCAMS asexual blood stage data; ref 1 (Gamo, F. J. et al., Nature 465, 305-310, 2010); read-out: Pf Asexual blood stages XC50; cited from earlier work
HepG2 cells = assay: HepG2 cytotoxicity assay; assay type: cell-based; conditions: HepG2 cells; mean
Procedure: After incubation, plates and CellTiter-Glo Reagent (G7571, Promega) were equilibrated at room temperature for 30 min before proceeding to develop the luminescent signal. Using a Multidrop combi dispenser, 25 μl per well of the signal developer were added to the plates and after 10 min at room temperature for stabilization, plates were read on the ViewLux system (Perkin Elmer).

[2] = test system: P. falciparum stages IV–V gametocytes; assay: Gametocytocidal ATP-depletion assay (gametocyte ATP bioluminescence); assay type: cell-based, Plasmodium falciparum
Procedure: In parallel, the set of confirmed hits from the Pf FGAA screen was cross-compared in the gametocyte ATP-depletion assay, at 2 μM single concentration (Supplementary Data 1). This assay monitors ATP levels as surrogate of gametocyte viability.
‘Viability' of mature gametocytes was determined using the gametocyte ATP bioluminiscence assay. Briefly, stages IV–V gametocyte cultures were double-purified by differential sedimentation followed by magnetic isolation. Then, parasites (50 μl per well containing 12,500 gametocytes) were added to compound pre-dispensed 384-well plates (781091, Greiner Bio-One) and incubated at 37 °C for 48 h (3% O2, 5% CO2 and 92% N2). BacTiter-Glo kit (G8231, Promega) was used to determine the ATP levels of ‘live' parasites according to the manufacturer's instructions. After reagent addition (50 μl per well), luminescence of the plates was measured using a microplate reader (HTS counter Victor, Wallac).

[3] = test system: P. falciparum stage V female gametocytes; assay: P. falciparum female gametocyte activation assay (Pf FGAA), 24 h or 48 h preincubation, Pfs25 expression readout; assay type: cell-based, Plasmodium falciparum NF54; conditions: P. falciparum female gametocytes; mean; read-out: Gametocytes mean Pf FGAA IC50
Procedure: P. falciparum NF54 (originally isolated from an imported malaria case in the Netherlands in the 1980s; BEI Resources, cat. no. MRA-1000) asexual-stage culture was performed as described by Trager and Jensen[37]. Cultures synchronized at the ring stage were used to start gametocyte cultures (day 0) at 1% parasitaemia and 4% haematocrit in 200 ml final volume using culture bottles (Nalgene 3110-42, Thermo Scientific). Complete culture medium (RPMI 1640 supplemented with 25 mM HEPES, 50 μg ml^−1 hypoxanthine, 2 g l^−1 NaHCO3 and 10% pooled human male type A+ serum) was totally replaced daily for 14 days without fresh erythrocyte addition. Human serum was obtained from Interstate Blood Bank, A^+ serotype; no aspirin 2 h before drawing and no antimalarials 2 weeks before drawing. To ensure a stable temperature at 37 °C, which is crucial for gametocyte production and maturation, pre-warmed medium and a slide warmer (XH-2001, Premiere) were used. Under these conditions, parasitaemia reaches a peak of asexual stages on days 4–5, and the first gametocytes are differentiated in culture on day 6. Sexual-stage development was monitored microscopically by Giemsa-stained thin blood smears at day 7 (mainly asexual stages and stages I to III gametocytes) and day 14 (stages IV and V gametocytes).
Cultures showing mainly stage V gametocytes were purified by differential sedimentation as previously reported. The gametocyte concentration was adjusted to plate 8,000 gametocytes per well (100 μl per well) in 384-well poly-D-lysine coated plates (781946, Greiner Bio-One) containing the compounds to test. […] Female gametocyte activation was then triggered by temperature drop and addition of xanthurenic acid (D120804, Sigma) as previously described. To detect female gametes, monoclonal anti-Pfs25 antibody[38] 4B7 (BEI Resources (formerly MR4), cat. no. MRA-315) conjugated to the Cy3 fluorochrome (GE Healthcare) was added to ookinete medium (RPMI 1640 supplemented with 25 mM HEPES, 50 μg ml^−1 hypoxanthine, 2 g l^−1 NaHCO3, 100 μM xanthurenic acid and 20% human serum) at a final concentration of 0.5 μg ml^−1. Activated cultures were then kept at 26 °C for 24 h protected from light, and image acquisition was performed in the Opera High-Content Screening System (PerkinElmer). Using × 10 air objective, five images per well were taken using 532 nm excitation. Images were analysed with a Columbus image data storage and analysis system (PerkinElmer) based on a script specifically designed for this assay that considers size, roundness and intensity of fluorescence of the female activated gametocytes.
Compounds were dissolved in 100% DMSO and dispensed in the 384-well plates using an Echo-CRS liquid handler. Compounds were tested in 2–3 independent experiments. […] Based on that, Z′ factor was calculated for each plate and only those ones with values higher than 0.4 were considered acceptable for data analysis.
Assay performance statistics, such as signal to background ratio, Z′ and robust 3 s.d. activity cut-off were calculated using templates in ActivityBase XE (IDBS, Guilford, Surrey, UK). Hit population analysis and visualization were conducted using Spotfire DecisionSite (Spotfire, Inc., Somerville, MA, USA). The pIC50 (−log IC50) values were obtained using the ActivityBase XE nonlinear regression function in the full curve analysis bundle.

SMILES	IC50 [1]	HepG2 cells mean TOX50 (HepG2 cells)	Gametocytes mean ATP inhibition at 2µM [2]	IC50 [3]
COc1ccc(CCNCCCCCCNCCc2ccc(Cl)c3ccccc23)cc1OC.Cl [TCMDC-131270]	580 nM	2.12 µM	67.75%	580 nM
Br.Oc1ccc(CCNCCCCCCNCCc2ccc(Cl)c3ccccc23)cc1O [TCMDC-131271]	720 nM	11.22 µM	14.57%	2380 nM
COc1ccc(CCNCCCCCCNCCc2ccc(Cl)cc2)c(Cl)c1OC.Cl [TCMDC-131272]	820 nM	5.54 µM	24.24%	830 nM
Br.CC(C)(Cc1ccc(Cl)cc1)NCCCCCCNCCc1ccc(O)c(O)c1 [TCMDC-131277]	1200 nM	10.97 µM	53.83%	9660 nM
Br.CCCCc1ccc(CCNCCCCCCNCCc2ccc(O)c(O)c2)cc1 [TCMDC-131281]	1070 nM	4.63 µM	60.07%	2150 nM
CCC(CSC1CCCCC1)N(C)CCN(C)C(CC)CSC1CCCCC1.Cl (stereo not shown) [TCMDC-131456]	310 nM	0.0654 µM	36.19%	1250 nM
C[C@H](Cc1ccc(C[C@@H](C)NC[C@H](O)c2cccc(Cl)c2)cc1)NC[C@H](O)COc1ccccc1.Cl [TCMDC-131549]	1170 nM	5.19 µM	20.38%	1390 nM
C[C@H](Cc1ccc(CCc2ccc(C[C@@H](C)NC[C@H](O)c3cccc(Cl)c3)cc2)cc1)NC[C@H](O)c1cccc(Cl)c1.Cl [TCMDC-131551]	940 nM	4.27 µM	51.33%	2050 nM
C[C@H](Cc1ccc(Oc2ccc(C[C@@H](C)NC[C@H](O)c3cccc(Cl)c3)cc2)cc1)NC[C@H](O)c1cccc(Cl)c1.Cl [TCMDC-131560]	560 nM	2.04 µM	70.55%	720 nM
C[C@H](Cc1ccc(OCCCCCOc2ccc(C[C@@H](C)NC[C@H](O)c3cccc(Cl)c3)cc2)cc1)NC[C@H](O)c1cccc(Cl)c1.Cl [TCMDC-131563]	190 nM	2.11 µM	21.40%	960 nM
N=C(/N=C(/NCCCCCCN/C(=N\C(=N)Nc1ccc(Cl)cc1)N1CCCCC1)N1CCCCC1)Nc1ccc(Cl)cc1 [TCMDC-131811]	260 nM	44.23 µM	49.82%	7870 nM
N=C(/N=C(/NCCCCCCN/C(=N/C(=N)NCc1ccc(Cl)c(Cl)c1)N1CCCCC1)N1CCCCC1)NCc1ccc(Cl)c(Cl)c1 [TCMDC-131816]	570 nM	43.18 µM	67.07%	2610 nM
CCN(CC)/C(=N/C(=N)NCc1ccc(Cl)cc1Cl)NCCCCCCN/C(=N\C(=N)NCc1ccc(Cl)cc1Cl)N(CC)CC [TCMDC-131819]	220 nM	36.73 µM	65.32%	4750 nM
CCCCN(CCCC)/C(=N/C(=N)NCc1ccc(Cl)c(Cl)c1)NCCCCCCN/C(=N\C(=N)NCc1ccc(Cl)c(Cl)c1)N(CCCC)CCCC [TCMDC-131821]	400 nM	13.96 µM	63.54%	2510 nM
COc1cc2nc(NCCCN3CCCCC3)nc(NCc3ccccc3)c2cc1OC [TCMDC-132012]	1000 nM	6.84 µM	19.39%	900 nM
Br.CCc1c(CCNCCCCCCNCCc2ccc(Br)cc2)ccc(O)c1O [TCMDC-132044]	900 nM	7.96 µM	6.14%	1300 nM
